Where no end group is shown, it is not given here.

Results on 2 substances are retold here after US20070014803A1, “METHODS AND COMPOSITIONS FOR DIAGNOSIS AND TREATMENT OF VIRAL AND BACTERIAL INFECTIONS” (Arbor Vita Corporation, priority 2005, published 2007).

What all share (assay): PRISM Matrix ELISA G assay, peptide titration
What all share (assay type): binding
(In general: ELISA stands for enzyme-linked immunosorbent assay.)

One experiment addresses T1, PDZ protein NSP (Homo sapiens, UniProt Q92743).
T1 construct: made in house
Conditions: for binding to the PDZ protein NSP, in words: summary of the titrations. The procedure: (§1) (1) A PDZ-domain polypeptide is bound to a surface, e.g. a protein binding surface. In a preferred embodiment, a GST/PDZ fusion protein containing one or more PDZ domains is bound to a polystyrene 96-well plate. […] In one embodiment, the GST/PDZ fusion protein is bound via an anti-GST antibody that is coated onto the 96-well plate. Adequate binding to the plate can be achieved when: • a. 100 μL per well of 5 μg/mL goat anti-GST polyclonal antibody (Pierce) in PBS is added to a polystyrene 96-well plate (e.g., Nunc Polysorb) at 4° C. for 12 hours. • b. The plate is blocked by addition of 200 μL per well of PBS/BSA for 2 hours at 4° C. • c. The plate is washed 3 times with PBS. • d. 50 μL per well of 5 μg/mL GST/PDZ fusion protein) or, as a negative control, GST polypeptide alone (i.e. not a fusion protein) in PBS/BSA is added to the plate for 2 hours at 4° C. • e. the plate is again washed 3 times with PBS.
(§2) (2) Biotinylated PL peptides are allowed to react with the surface by addition of 50 μL per well of 20 μM solution of the biotinylated peptide in PBS/BSA for 10 minutes at 4° C., followed by an additional 20 minute incubation at 25° C. The plate is washed 3 times with ice cold PBS.
(§3) (3) The binding of the biotinylated peptide to the GST/PDZ fusion protein surface can be detected using a variety of methods and detectors. In an exemplary procedure, 100 μL per well of 0.5 μg/mL streptavidin-horse radish peroxidase (HRP) conjugate dissolved in BSA/PBS is added and allowed to react for 20 minutes at 4° C. The plate is then washed 5 times with 50 mM Tris pH 8.0 containing 0.2% Tween 20, and developed by addition of 100 μL per well of HRP-substrate solution (TMB, Dako) for 20 minutes at room temperature (RT). The reaction of the HRP and its substrate is terminated by addition of 100 μL per well of 1 M sulfuric acid, and the optical density (O.D.) of each well of the plate is read at […].
(§4) (4) Specific binding of a PL peptide and a PDZ domain polypeptide is determined by comparing the signal from the well(s) in which the PL peptide and PDZ domain polypeptide are combined, with the background signal(s). The background signal is the signal found in the negative control(s). Typically a specific or selective reaction is at least twice background signal, more typically more than 5 times background, and most typically 10 or more times the background signal. In addition, a statistically significant reaction involves multiple measurements of the reaction with the signal and the background differing by at least two standard errors, more typically four standard errors, and most typically six or more standard errors. Correspondingly, a statistical test (e.g. a T-test) comparing repeated measurements of the signal with -repeated measurements of the background will result in a p-value <0.05, more typically a p-value <0.01, and most typically a p-value <0.001 or less. As noted, in an embodiment of the “G” assay, the signal from binding of a given PL peptide to immobilized (surface bound) GST polypeptide alone is one suitable negative control (sometimes referred to as “B 1”). Because all measurement are done in multiples (i.e. at least duplicate) the arithmetic mean (or, equivalently, average) of several measurements is used in determining the binding, and the standard error of the mean is used in determining the probable error in the measurement of the binding. The standard error of the mean of N measurements equals the square root of the following: the sum of the squares of the difference between each measurement and the mean, divided by the product of (N) and (N−1). Thus, in one embodiment, specific binding of the PDZ protein to the platebound peptide is determined by comparing the mean signal (“mean S”) and standard error of the signal (“SE”) for a particular PL-PDZ combination with the mean B I.
(§5) Two different types of ELISA assays were used to test the HIV Peptides 1904 and 1905. […]

Another experiment concerns the target T2, PDZ protein Rim2 (Homo sapiens, UniProt Q9UQ26).
T2 construct: made in house
T2 sequence (Q9UQ26 632-757): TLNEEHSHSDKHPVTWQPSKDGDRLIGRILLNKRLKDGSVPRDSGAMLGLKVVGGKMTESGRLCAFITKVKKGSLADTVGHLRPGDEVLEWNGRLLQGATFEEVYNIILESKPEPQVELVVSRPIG
Conditions: for EC50: read-out: EC50 of binding to the PDZ protein Rim2, regular G assay titration, GST/PDZ fusion (FIG. 1C, FIG. 4C); for binding to the PDZ protein Rim2, in words: summary of the titrations. How it is done:
as §1, §2, §3, §4, §5

The target in experiment [1] is T3, PDZ protein ZO-1 d2 (domain 2) (Homo sapiens, UniProt Q07157, DEL264-264).
T3 construct: made in house
T3 sequence (Q07157 with tags, fused parts or gaps DEL264-264): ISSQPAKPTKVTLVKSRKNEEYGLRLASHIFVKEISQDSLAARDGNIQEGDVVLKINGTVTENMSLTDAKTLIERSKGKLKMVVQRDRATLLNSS
The note with it: for EC50: read-out: EC50 of binding to the PDZ protein ZO-1 d2, regular G assay titration, GST/PDZ fusion (FIG. 1B, FIG. 4B); for binding to the PDZ protein ZO-1 d2, in words: summary of the titrations. How it is done:
as §1, §2, §3, §4, §5

T1 sequence (Q92743 359-473): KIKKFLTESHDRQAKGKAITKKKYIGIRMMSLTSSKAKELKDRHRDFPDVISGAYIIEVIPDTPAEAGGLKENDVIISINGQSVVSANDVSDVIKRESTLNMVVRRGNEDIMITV

On to YGRKKRRQRRRRQGFERALL-OH [Peptide 1905], for which, at PDZ protein NSP (read-out: EC50 of binding to the PDZ protein NSP, regular G assay titration, GST/PDZ fusion (FIG. 1D, FIG. 4D)), the EC50 (in general, the concentration giving half of the maximal effect) came out at 166 nM. Moreover, on PDZ protein NSP, the “binding to the PDZ protein NSP, in words” value is “strong binding”. Besides, on PDZ protein Rim2, the EC50 is 182 nM and the “binding to the PDZ protein Rim2, in words” value is on record as “strong binding”. Also, in experiment [1], the EC50 stood at 184 nM and the “binding to the PDZ protein ZO-1 d2, in words” value is given as “strong binding”.
As for YGRKKRRQRRRRQGLERILL-OH [Peptide 1904], at PDZ protein NSP, the “binding to the PDZ protein NSP, in words” value was “strong binding”. At PDZ protein Rim2, the EC50 was 410 nM and the “binding to the PDZ protein Rim2, in words” value is on record as “strong binding”. Also, in experiment [1], the EC50 is 170 nM and the “binding to the PDZ protein ZO-1 d2, in words” value is on record as “strong binding”.
